Measured values published in ChEMBL document CHEMBL4431341, “Synthesis and anticancer activity of a hydroxytolan series” (Bioorg Med Chem Lett, 2016).
Activity calls are given as the source filed them. No cut-off for these calls is given here.

Columns and labels:
[1] = system: DU-145; assay: Cytotoxicity against human DU145 cells after 24 hrs by MTT assay; format: functional; details: DU-145, 24 h, read-out: CD50 (the source's name)
[2] = system: T-24; assay: Cytotoxicity against human T24 cells after 24 hrs by MTT assay; format: functional; details: T-24, 24 h, read-out: CD50 (the source's name)
[3] = system: MDAH 2774; assay: Cytotoxicity against human MDAH 2774 cells after 24 hrs by MTT assay; format: functional; details: MDAH 2774, 24 h, read-out: CD50 (the source's name)
[4] = Cytotoxicity against human MHRF cells after 24 hrs by MTT assay; format: cell-based; details: read-out: CD50
[5] = system: DU-145; assay: Cytotoxicity against human DU145 cells after 48 hrs by MTT assay; format: functional; details: DU-145, 48 h, read-out: CD50 (the source's name)
[6] = system: T-24; assay: Cytotoxicity against human T24 cells after 48 hrs by MTT assay; format: functional; details: T-24, 48 h, read-out: CD50 (the source's name)
[7] = system: MDAH 2774; assay: Cytotoxicity against human MDAH 2774 cells after 48 hrs by MTT assay; format: functional; details: MDAH 2774, 48 h, read-out: CD50 (the source's name)
[8] = Cytotoxicity against human MHRF cells after 48 hrs by MTT assay; format: cell-based; details: read-out: CD50
[9] = system: DU-145; assay: Cytotoxicity against human DU145 cells after 72 hrs by MTT assay; format: functional; details: DU-145, 72 h, read-out: CD50 (the source's name)
[10] = system: T-24; assay: Cytotoxicity against human T24 cells after 72 hrs by MTT assay; format: functional; details: T-24, 72 h, read-out: CD50 (the source's name)
[11] = system: MDAH 2774; assay: Cytotoxicity against human MDAH 2774 cells after 72 hrs by MTT assay; format: functional; details: MDAH 2774, 72 h, read-out: CD50 (the source's name)
[12] = Cytotoxicity against human MHRF cells after 72 hrs by MTT assay; format: cell-based; details: read-out: CD50
[13] = system: DU-145; assay: Pro-oxidative activity in human DU145 cells assessed as increase in H2O2 mediated DCF formation at 25 to 100 uM preincubated with DCFH-DA for 30 mins followed by compound treatment for 3 hrs by fluorescence analysis; format: functional, cell-based
[14] = system: DU-145; assay: Cytotoxicity against human DU145 cells assessed as inhibition of cell viability at 2 to 500 uM after 24 hrs by MTT assay; format: functional, cell-based
[15] = system: DU-145; assay: Cytotoxicity against human DU145 cells assessed as inhibition of cell viability at 2 to 500 uM after 24 hrs in presence of CAT by MTT assay; format: functional, cell-based
[16] = Lipophilicity, log P of the compound; format: physicochemical; details: octanol/water
[17] = system: DU-145; assay: Potency index, ratio of CD50 for RES to CD50 for test compound against human DU145 cells after 24 hrs; format: functional
[18] = system: T-24; assay: Potency index, ratio of CD50 for RES to CD50 for test compound against human T24 cells after 24 hrs; format: functional
[19] = system: MDAH 2774; assay: Potency index, ratio of CD50 for RES to CD50 for test compound against human MDAH 2774 cells after 24 hrs; format: functional
[20] = Ratio of CD50 for test compound to CD50 for RES against human MHRF cells after 24 hrs; format: ADME, cell-based
[21] = system: DU-145; assay: Potency index, ratio of CD50 for RES to CD50 for test compound against human DU145 cells after 48 hrs; format: functional
[22] = system: T-24; assay: Potency index, ratio of CD50 for RES to CD50 for test compound against human T24 cells after 48 hrs; format: functional
[23] = system: MDAH 2774; assay: Potency index, ratio of CD50 for RES to CD50 for test compound against human MDAH 2774 cells after 48 hrs; format: functional
[24] = Ratio of CD50 for test compound to CD50 for RES against human MHRF cells after 48 hrs; format: ADME, cell-based
[25] = system: DU-145; assay: Potency index, ratio of CD50 for RES to CD50 for test compound against human DU145 cells after 72 hrs; format: functional
[26] = system: T-24; assay: Potency index, ratio of CD50 for RES to CD50 for test compound against human T24 cells after 72 hrs; format: functional
[27] = system: MDAH 2774; assay: Potency index, ratio of CD50 for RES to CD50 for test compound against human MDAH 2774 cells after 72 hrs; format: functional
[28] = Ratio of CD50 for test compound to CD50 for RES against human MHRF cells after 72 hrs; format: ADME, cell-based
[29] = Selectivity index, ratio of CD50 against human MHRF cells to CD50 for human DU145 cells after 24 hrs
[30] = Selectivity index, ratio of CD50 against human MHRF cells to CD50 for human T24 cells after 24 hrs
[31] = Selectivity index, ratio of CD50 against human MHRF cells to CD50 for human MDAH 2774 cells after 24 hrs
[32] = Selectivity index, ratio of CD50 against human MHRF cells to CD50 for human DU145 cells after 48 hrs
[33] = Selectivity index, ratio of CD50 against human MHRF cells to CD50 for human T24 cells after 48 hrs
[34] = Selectivity index, ratio of CD50 against human MHRF cells to CD50 for human MDAH 2774 cells after 48 hrs
[35] = Selectivity index, ratio of CD50 against human MHRF cells to CD50 for human DU145 cells after 72 hrs
[36] = Selectivity index, ratio of CD50 against human MHRF cells to CD50 for human T24 cells after 72 hrs
[37] = Selectivity index, ratio of CD50 against human MHRF cells to CD50 for human MDAH 2774 cells after 72 hrs

| SMILES | CC50 [1] | CC50 [2] | CC50 [3] | CC50 at 24 h [4] | CC50 [5] | CC50 [6] | CC50 [7] | CC50 at 48 h [8] | CC50 [9] | CC50 [10] | CC50 [11] | CC50 at 72 h [12] | logP [16] | Ratio [17] | Ratio [18] | Ratio [19] | selectivity ratio at 24 h [20] | Ratio [21] | Ratio [22] | Ratio [23] | also measured |
| --- | --- | --- | --- | --- | --- | --- | --- | --- | --- | --- | --- | --- | --- | --- | --- | --- | --- | --- | --- | --- | --- |
| Oc1ccc(/C=C/c2cc(O)cc(O)c2)cc1 [RESVERATROL] | 92.2 µM | 210 µM | 36.9 µM | 155 µM | 58.2 µM | 61.8 µM | 23 µM | 50.9 µM | 27.9 µM | 22.7 µM | 14.6 µM | 32 µM | 1.85 | – | – | – | – | – | – | – | Activity [13]: inactive; inhibition [14]: inactive; inhibition [15]: inactive |
| Oc1ccc(C#Cc2cc(O)cc(O)c2)cc1 | 55.7 µM | 92.2 µM | 54.1 µM | 295 µM | 37.4 µM | 41.1 µM | 26.4 µM | 198 µM | 20.3 µM | 24.3 µM | 20.4 µM | 175 µM | 1.85 | 1.7 | 2.3 | 0.7 | 0.5 | 1.6 | 1.5 | 0.9 | selectivity ratio at 48 h [24]: 0.3; Ratio [25]: 1.4; Ratio [26]: 1; Ratio [27]: 0.7; Ratio [28]: 0.2; Selectivity Index [29]: 5.3; Selectivity Index [30]: 3.2; Selectivity Index [31]: 5.5; Selectivity Index [32]: 5.3; Selectivity Index [33]: 4.8; Selectivity Index [34]: 7.5; Selectivity Index [35]: 8.6; Selectivity Index [36]: 7.2; Selectivity Index [37]: 8.6 |
| Oc1cc(O)cc(C#Cc2cc(O)cc(O)c2)c1 | 57 µM | 44.7 µM | 31.4 µM | 156 µM | 31.6 µM | 27.3 µM | 21.5 µM | 113 µM | 17 µM | 20.1 µM | 16.8 µM | 66.9 µM | – | 1.6 | 4.7 | 1.7 | 1 | 1.8 | 2.3 | 0.7 | selectivity ratio at 48 h [24]: 0.5; Ratio [25]: 5; Ratio [26]: 1.1; Ratio [27]: 0.9; Ratio [28]: 0.5; Selectivity Index [29]: 2.7; Selectivity Index [30]: 3.5; Selectivity Index [31]: 5; Selectivity Index [32]: 3.6; Selectivity Index [33]: 4.1; Selectivity Index [34]: 5.2; Selectivity Index [35]: 4; Selectivity Index [36]: 3.3; Selectivity Index [37]: 4 |
| Oc1ccc(C#Cc2ccc(O)cc2)cc1 | 46.7 µM | 82.6 µM | 21.5 µM | 299 µM | 12.6 µM | 31.1 µM | 10.5 µM | 194 µM | 5.6 µM | 8.5 µM | 3.1 µM | 153 µM | 2.3 | 2 | 2.5 | 1.7 | 0.5 | 4.6 | 2 | 2.2 | selectivity ratio at 48 h [24]: 0.3; Ratio [25]: 5; Ratio [26]: 2.7; Ratio [27]: 4.7; Ratio [28]: 0.2; Selectivity Index [29]: 6.4; Selectivity Index [30]: 3.6; Selectivity Index [31]: 13.9; Selectivity Index [32]: 15.4; Selectivity Index [33]: 6.2; Selectivity Index [34]: 18.5; Selectivity Index [35]: 27.3; Selectivity Index [36]: 18; Selectivity Index [37]: 49.3; Activity [13]: Active; inhibition [14]: Active; inhibition [15]: inactive |
